Laboratory results published in US5856334A, “Imidazoquinoline derivatives” (Mochida Pharmaceutical Co., Ltd., priority 1994, dated 1999).
Several values for one entry are separate records, joined by “and”; a condition that tells them apart may be missing. Identical values can stand only once.

Assays:
[1] = tested on: intraperitoneal eosinophils; assay: Activity on Mouse Intraperitoneal Hypereosinophilic Model (Ascaris suum extract sensitization); format: in vivo, BALB/c male mice; conditions: peroral, once a day, 10 administrations
Procedure: BALB/c male mice (body weight=ca. 25 g), divided in groups each consisting of five animals, were sensitized by intraperitoneal injection of physiological saline (0.11 mL) containing 0.1 mg of Ascaris suum extract. Seven days later, the same treatment was conducted; three days later, the animals were bled to death and injected intraperitoneally with 3 mL of physiological saline containing 1% dipotassium ethylenediaminetetraacetate (EDTA) and massaged on the abdominal part for about 30 sec. The abdominal part was incised to collect the intraperitoneal fluid, which was centrifuged at 130×g for 10 min. Fetal bovine serum (500 μl) containing 1% EDTA was added to the pellet to prepare a cell suspension. Part of the cell suspension was smeared on a glass slide with a centrifugal smearing device and subjected to Difquick staining. Thereafter, the total white blood cell (WBC) count and the eosinophil count were taken to determine the percentage of eosinophils in the total WBC. The total number of WBCs in the cell suspension was measured with an automatic hemocytometer. Multiplying the percentage of eosinophils in the total WBC by the total number of WBCs provided the number of eosinophils in the cell suspension. […] The mice neither sensitized nor administered the test compounds (untreated group), as well as the mice that were sensitized but not administered the test compounds (control group) were similarly administered 5% aqueous gum arabic perorally. Inhibition of the Increase in Eosinophils (%)={1-(test compound administered group-untreated group)/(control group-untreated group)}×100

[2] = Experiment on Acute Toxicity (oral, survival until 7th day); set-up: species or system ICR male mice; conditions: mouse, in vivo, 1000 mg/kg, peroral, until the 7th day of the administration, read-out: No. of Survivals (converted)
Excerpt: ICR male mice (body weight=ca. 35 g) weighing about 30 g were divided in groups each consisting of one or three animals and administered perorally each of the test compounds as suspended in 5% aqueous gum arabic. The mice were then examined for their survival until the 7th day of the administration.

eosinophils in BALF = assay: Activity on Model for the Increase of Eosinophils in the Rat Bronchial Alveolar Lavage Fluid (Sephadex G200 sensitization); format: in vivo, Sd male rats; conditions: peroral, once a day, 10 administrations
Procedure: Sd male rats (8 wk old), divided in groups each consisting of five animals, were sensitized by an intravenous injection into tail vein of Sephadex G200 suspension (1 mL), that had been prepared to give a concentration of 0.75 mg/ml physiological saline. Seven days later, the same treatment was conducted; three days later, each rat was fitted with an tracheal cannula under anesthetization with pentobarbital and 7 mL of physiological saline containing 1% EDTA was injected via the cannula and recovered; this procedure was repeated three times to collect the BALF, which were centrifuged at 130×g for 10 min. Physiological saline (200 μl) containing 1% EDTA was added to the pellet to prepare a cell suspension. Part of the cell suspension was resuspended in fetal bovine serum containing 1% EDTA, smeared on a glass slide with a centrifugal smearing device and subjected to Difquick staining. Thereafter, the total WBC count and the eosinophil count were taken to determine the percentage of eosinophils in the total WBC. The total number of WBCs in the cell suspension was measured with a hemocytometer after staining with a Turck solution. Multiplying the percentage of eosinophils in the total WBC by the total number of WBCs provided the number of eosinophils in the cell suspension.
Each of the test compounds was suspended in 5% aqueous gum arabic and administered perorally to mice immediately after the initial sensitization on a once-a-day basis for a total of 10 administrations (test compound-treated group). The mice neither sensitized nor administered the test compounds (untreated group), as well as the mice that were sensitized but not administered the test compounds (control group) were similarly administered 5% aqueous gum arabic perorally.
Inhibition of the Increase of Eosinophils (%)={1-(test compound
administered group-untreated group)/(control group-untreated

Structure (SMILES)	Inhibition of the Increase of Eosinophils (%) ([1]; 30 mg/kg/day)	survival at 168 h [2] [%]	Inhibition of the Increase of Eosinophils in BALF (%) (eosinophils in BALF; 30 mg/kg/day)	Inhibition of the Increase of Eosinophils (%) ([1]; 100 mg/kg/day)	further results
OC1CCn2c(CCc3ccccc3)nc3cccc1c32 (single isomer, unassigned; (+)) [Example 11, (+)-5,6-dihydro-2-(2-phenylethyl)-4H-imidazo[4,5,1-ij]quinolin-6-ol]	43	–	–	–	–
O=C(O)c1ccccc1COC1CCn2c(CCc3ccccc3)nc3cccc1c32 (single isomer, unassigned; (+)) [Example 24, (+)-6-(2-carboxyphenyl)methoxy-5,6-dihydro-2-(2-phenylethyl)-4H-imidazo[4,5,1-ij]quinoline]	45	–	–	–	–
O=C1CCn2c(CCc3ccccc3)nc3cccc1c32 [Example 1, 4,5-dihydro-2-(2-phenylethyl)-6H-imidazo[4,5,1-ij]quinolin-6-one]	48	100	68	68	–
OC1CCn2c(CCc3ccccc3)nc3cccc1c32 (centres unmarked) [Example 4, 5,6-dihydro-2-(2-phenylethyl)-4H-imidazo[4,5,1-ij]quinolin-6-ol]	67	100	90	57	–
c1ccc(CCc2nc3cccc4c3n2CCC4)cc1 [Example 13, 5,6-dihydro-2-(2-phenylethyl)-4H-imidazo[4,5,1-ij]quinoline]	49	100	–	64	–
Cl.NC1CCn2c(CCc3ccccc3)nc3cccc1c32 (centres unmarked) [Example 18, 5,6-dihydro-2-(2-phenylethyl)-4H-imidazo[4,5,1-ij]quinolin-6-amine hydrochloride]	53	–	–	–	–
CON=C1CCn2c(CCc3ccccc3)nc3cccc1c32 [Example 35, 5,6-dihydro-6-methoxyimino-2-(2-phenylethyl)-4H-imidazo[4,5,1-ij]quinoline]	–	100	73	–	–
O=C(O)c1ccccc1C(=O)OC1CCn2c(CCc3ccccc3)nc3cccc1c32 (centres unmarked) [Example 41, 5,6-dihydro-6-(o-carboxybenzoyloxy)-2-(2-phenylethyl)-4H-imidazo[4,5,1-ij]quinoline]	–	100	–	–	–
O=C(O)c1cccc(COC2CCn3c(CCc4ccccc4)nc4cccc2c43)c1C(=O)O (centres unmarked) [Example 64, 6-(2,3-dicarboxyphenyl)methoxy-5,6-dihydro-2-(2-phenylethyl)-4H-imidazo[4,5,1-ij]quinoline]	57	–	–	–	–
CC(=O)OCC(=O)[C@@]1(O)CC[C@H]2[C@@H]3CCC4=CC(=O)C=C[C@]4(C)[C@H]3[C@@H](O)C[C@@]21C [Prednisolone Acetate, 11β, 17α, 21-trihydroxypregna-1,4-diene-3,20-dione 21-acetate, reference compound]	–	–	–	–	Inhibition of the Increase of Eosinophils in BALF (%) (eosinophils in BALF; 10 mg/kg/day): 76% and 69%; Inhibition of the Increase of Eosinophils (%) ([1]; 10 mg/kg/day): 65%
